The series can be described thus: activity coefficient (dimensionless); of the first substance listed, at infinite dilution; xn = mol fraction of the nth substance listed. The conditions noted are these: Liquid, Chromatography, x1 = 0.

The values below come from the NIST ThermoML archive (doi:10.1016/j.jct.2010.01.004).

Molecules are shown by their SMILES. Numbers after ± are expanded uncertainties.

`C1CCCCCCC1` [cyclooctane] + CC(C)C[P+](C)(CC(C)C)CC(C)C.Cc1ccc(S(=O)(=O)[O-])cc1: the activity coefficient runs as follows: (298.15 K) 10.5 ± 0.7; (308.15 K) 8.54 ± 0.58; (318.15 K) 7.48 ± 0.51; (328.15 K) 6.67 ± 0.45.

For `CCCCCC` [hexane] + CC(C)C[P+](C)(CC(C)C)CC(C)C.Cc1ccc(S(=O)(=O)[O-])cc1, the activity coefficient (298.15 K) worked out at 48.8 ± 3.3, the activity coefficient (308.15 K) was 32.2 ± 2.2, the activity coefficient (318.15 K) is 23.3 ± 1.6 and the activity coefficient (328.15 K) was 16.4 ± 1.1.

`CCCCCCCCC` [nonane] + CC(C)C[P+](C)(CC(C)C)CC(C)C.Cc1ccc(S(=O)(=O)[O-])cc1: the activity coefficient by setting is: (298.15 K) 26.8 ± 1.8; (308.15 K) 24.7 ± 1.7; (318.15 K) 21.6 ± 1.5; (328.15 K) 19.8 ± 1.4.

`Cc1ccccc1C` [1,2-dimethylbenzene] + CC(C)C[P+](C)(CC(C)C)CC(C)C.Cc1ccc(S(=O)(=O)[O-])cc1: the activity coefficient (298.15 K) amounted to 2.31 ± 0.16; the activity coefficient (308.15 K) came out at 2.21 ± 0.15; the activity coefficient (318.15 K) was 2.18 ± 0.15; the activity coefficient (328.15 K) amounted to 2.1 ± 0.14; the activity coefficient (338.15 K) came out at 2.06 ± 0.14; the activity coefficient (348.15 K) amounted to 2.04 ± 0.14. In addition, the activity coefficient is 2.03 ± 0.14 (358.15 K) and 2.01 ± 0.14 (368.15 K).

`C#CCCCCCC` [1-octyne] + CC(C)C[P+](C)(CC(C)C)CC(C)C.Cc1ccc(S(=O)(=O)[O-])cc1: the activity coefficient runs as follows: (298.15 K) 3.19 ± 0.22; (308.15 K) 3.08 ± 0.21; (318.15 K) 3.06 ± 0.21; (328.15 K) 3.04 ± 0.21.

As to `C1CCCCC1` [cyclohexane] + CC(C)C[P+](C)(CC(C)C)CC(C)C.Cc1ccc(S(=O)(=O)[O-])cc1, the activity coefficient (298.15 K) came to 22.5 ± 1.5, the activity coefficient (308.15 K) came out at 14.5 ± 1, the activity coefficient (318.15 K) was 10.5 ± 0.7 and the activity coefficient (328.15 K) came out at 7.67 ± 0.52.

Turning to `C=CCCCCCC` [oct-1-ene] + CC(C)C[P+](C)(CC(C)C)CC(C)C.Cc1ccc(S(=O)(=O)[O-])cc1, the activity coefficient reads like this: (298.15 K) 16.6 ± 1.1; (308.15 K) 15 ± 1; (318.15 K) 12.2 ± 0.8; (328.15 K) 10.8 ± 0.74.

In the case of `COC(C)(C)C` [2-methoxy-2-methylpropane] + CC(C)C[P+](C)(CC(C)C)CC(C)C.Cc1ccc(S(=O)(=O)[O-])cc1, the activity coefficient came out at 17.1 ± 1.2 (298.15 K); 11 ± 0.8 (308.15 K); 8.26 ± 0.56 (318.15 K); 5.68 ± 0.39 (328.15 K); 5 ± 0.34 (338.15 K); 4.57 ± 0.31 (348.15 K). Further, the activity coefficient (358.15 K) is 4.16 ± 0.28.

For `c1ccsc1` [thiophene] + CC(C)C[P+](C)(CC(C)C)CC(C)C.Cc1ccc(S(=O)(=O)[O-])cc1, the activity coefficient was 0.901 ± 0.057 (298.15 K); 0.848 ± 0.054 (308.15 K); 0.843 ± 0.054 (318.15 K); 0.818 ± 0.053 (328.15 K); 0.812 ± 0.053 (338.15 K); 0.805 ± 0.052 (348.15 K). Further, under “358.15 K”, the activity coefficient turned out to be 0.804 ± 0.052.

Turning to `CCCCO` [butan-1-ol] + CC(C)C[P+](C)(CC(C)C)CC(C)C.Cc1ccc(S(=O)(=O)[O-])cc1, the activity coefficient by setting is: (318.15 K) 0.322 ± 0.031; (328.15 K) 0.318 ± 0.031; (338.15 K) 0.319 ± 0.031; (348.15 K) 0.328 ± 0.032; (358.15 K) 0.33 ± 0.032; (368.15 K) 0.323 ± 0.032.

With `CCO` [ethanol] + CC(C)C[P+](C)(CC(C)C)CC(C)C.Cc1ccc(S(=O)(=O)[O-])cc1, the activity coefficient (308.15 K) worked out at 0.263 ± 0.03; the activity coefficient (318.15 K) amounted to 0.259 ± 0.03; the activity coefficient (328.15 K) turned out to be 0.261 ± 0.03; the activity coefficient (338.15 K) came to 0.262 ± 0.03; the activity coefficient (348.15 K) was 0.266 ± 0.03; the activity coefficient (358.15 K) was 0.268 ± 0.03. The activity coefficient (368.15 K) was determined as 0.266 ± 0.03.

Turning to `C1CCOC1` [tetrahydrofuran] + CC(C)C[P+](C)(CC(C)C)CC(C)C.Cc1ccc(S(=O)(=O)[O-])cc1, the activity coefficient stood at 1.41 ± 0.09 (298.15 K); 1.31 ± 0.09 (308.15 K); 1.22 ± 0.08 (318.15 K); 1.12 ± 0.07 (328.15 K); 1.09 ± 0.07 (338.15 K); 1.05 ± 0.07 (348.15 K). In addition, the activity coefficient (358.15 K) came to 1.05 ± 0.07.

Turning to `CO` [methanol] + CC(C)C[P+](C)(CC(C)C)CC(C)C.Cc1ccc(S(=O)(=O)[O-])cc1, the activity coefficient (298.15 K) is 0.168 ± 0.029; the activity coefficient (308.15 K) was 0.164 ± 0.029; the activity coefficient (318.15 K) came out at 0.166 ± 0.029; the activity coefficient (328.15 K) was determined as 0.167 ± 0.029; the activity coefficient (338.15 K) amounted to 0.171 ± 0.029; the activity coefficient (348.15 K) is 0.175 ± 0.029. The activity coefficient was found to be 0.178 ± 0.029 (358.15 K) and 0.179 ± 0.029 (368.15 K).

On to `C=CCCCC` [hex-1-ene] + CC(C)C[P+](C)(CC(C)C)CC(C)C.Cc1ccc(S(=O)(=O)[O-])cc1, for which the activity coefficient by setting is: (298.15 K) 23.5 ± 1.6; (308.15 K) 16.5 ± 1.1; (318.15 K) 12.4 ± 0.8; (328.15 K) 9.35 ± 0.64.

With `c1ccccc1` [benzene] + CC(C)C[P+](C)(CC(C)C)CC(C)C.Cc1ccc(S(=O)(=O)[O-])cc1, the activity coefficient reads like this: (298.15 K) 1.53 ± 0.1; (308.15 K) 1.42 ± 0.09; (318.15 K) 1.35 ± 0.09; (328.15 K) 1.28 ± 0.08; (338.15 K) 1.25 ± 0.08; (348.15 K) 1.21 ± 0.08. The activity coefficient (358.15 K) turned out to be 1.2 ± 0.08 and the activity coefficient (368.15 K) stood at 1.18 ± 0.08.

Regarding `C#CCCCC` [1-hexyne] + CC(C)C[P+](C)(CC(C)C)CC(C)C.Cc1ccc(S(=O)(=O)[O-])cc1, the activity coefficient reads like this: (298.15 K) 2.69 ± 0.18; (308.15 K) 2.48 ± 0.17; (318.15 K) 2.32 ± 0.16; (328.15 K) 2.17 ± 0.15.

In the case of `Cc1cccc(C)c1` [1,3-dimethylbenzene] + CC(C)C[P+](C)(CC(C)C)CC(C)C.Cc1ccc(S(=O)(=O)[O-])cc1, the activity coefficient is, setting by setting: (298.15 K) 2.68 ± 0.18; (308.15 K) 2.48 ± 0.17; (318.15 K) 2.44 ± 0.17; (328.15 K) 2.33 ± 0.16; (338.15 K) 2.36 ± 0.16; (348.15 K) 2.28 ± 0.16. Also, the activity coefficient is 2.27 ± 0.15 (358.15 K) and 2.23 ± 0.15 (368.15 K).

With `Cc1ccccc1` [toluene] + CC(C)C[P+](C)(CC(C)C)CC(C)C.Cc1ccc(S(=O)(=O)[O-])cc1, the activity coefficient was found to be 1.94 ± 0.13 (298.15 K); 1.81 ± 0.12 (308.15 K); 1.78 ± 0.12 (318.15 K); 1.69 ± 0.11 (328.15 K); 1.66 ± 0.11 (338.15 K); 1.65 ± 0.11 (348.15 K). Moreover, the activity coefficient (358.15 K) came out at 1.64 ± 0.11 and the activity coefficient (368.15 K) was 1.61 ± 0.11.

On to `C#CCCC` [1-pentyne] + CC(C)C[P+](C)(CC(C)C)CC(C)C.Cc1ccc(S(=O)(=O)[O-])cc1, for which the activity coefficient by setting is: (298.15 K) 3.01 ± 0.2; (308.15 K) 2.55 ± 0.17; (318.15 K) 2.24 ± 0.15; (328.15 K) 1.98 ± 0.13.

In the case of `C#CCCCCC` [1-heptyne] + CC(C)C[P+](C)(CC(C)C)CC(C)C.Cc1ccc(S(=O)(=O)[O-])cc1, the activity coefficient was 2.57 ± 0.17 (298.15 K), 2.62 ± 0.18 (308.15 K), 2.54 ± 0.17 (318.15 K) and 2.54 ± 0.17 (328.15 K).
